Measured values taken from patent US4572895A, “Process for preparing an antibiotic complex by culturing actinomyces strain ATCC 39417” (priority 1985, dated 1986).
Converted amounts (≈) assume the structure as drawn.

How the values were obtained:
Escherichia coli NIHJ = experiment: MIC, serial two-fold agar dilution; type: cell-based; conditions: nutrient agar
[1] = system: aerobic gram-positive bacteria and anaerobic bacteria; experiment: antibacterial activity, summary; type: cell-based
Text: Nutrient agar medium was used for gram-positive and gram-negative bacteria, GAM agar medium for anaerobes and Sabouraud agar medium for fungi.

[2] = system: Staphylococcus aureus Smith; experiment: MIC, serial two-fold agar dilution; type: cell-based; conditions: nutrient agar
solubility = type: physicochemical
Clostridium perfringens = experiment: microbe, parasite or virus in culture; type: cell-based
[3] = system: P388, L1210 and B16 tumors; experiment: antitumor activity in mice, summary over P388, L1210 and B16; type: in vivo, BDF1 mice
[4] = system: lymphocytic leukemia P388; experiment: antitumor activity, P388 leukemia in mice; conditions: qd 1→9
lymphoid leukemia L1210 = experiment: antitumor activity, L1210 leukemia in mice; conditions: qd 1→9
Clostridium difficile = experiment: MIC, serial two-fold agar dilution; type: cell-based; conditions: Clostridioides difficile; GAM agar, anaerobe
[5] = system: Micrococcus luteus PCI 1001; experiment: MIC, serial two-fold agar dilution; type: cell-based; conditions: PCI1001, nutrient agar
[6] = system: Aspergillus fumigatus IAM 2530; experiment: MIC, serial two-fold agar dilution; type: cell-based; conditions: IAM2530, Sabouraud agar
[7] = system: Staphylococcus aureus 209P; experiment: MIC, serial two-fold agar dilution; type: cell-based; conditions: nutrient agar
[8] = system: Candida albicans IAM 4888; experiment: MIC, serial two-fold agar dilution; type: cell-based; conditions: IAM4888, Sabouraud agar
[9] = system: Cryptococcus neoformans D49; experiment: MIC, serial two-fold agar dilution; type: cell-based; conditions: Sabouraud agar
[10] = system: Klebsiella pneumoniae D11; experiment: MIC, serial two-fold agar dilution; type: cell-based; conditions: nutrient agar
[11] = system: Pseudomonas aeruginosa D15; experiment: MIC, serial two-fold agar dilution; type: cell-based; conditions: nutrient agar
[12] = acute toxicity, single intraperitoneal administration; conditions: mouse, in vivo; single ip, mice (ddY strain)
melanotic melanoma B16 = experiment: antitumor activity, B16 melanoma in mice; conditions: qd 1→9
Propionibacterium acnes = experiment: MIC, serial two-fold agar dilution; type: cell-based; conditions: Cutibacterium acnes; GAM agar, anaerobe
[13] = system: Bacillus subtilis PCI 219; experiment: MIC, serial two-fold agar dilution; type: cell-based; conditions: PCI219, nutrient agar
[14] = system: Trichophyton mentagrophytes D155; experiment: MIC, serial two-fold agar dilution; type: cell-based; conditions: Sabouraud agar
Staphylococcus aureus = experiment: anti-staphylococcal activity (MIC comparison); type: cell-based; conditions: vs BBM-2478B or chartreusin
Micrococcus flavus D12 = experiment: MIC, serial two-fold agar dilution; type: cell-based; conditions: nutrient agar
Bacteroides fragilis = experiment: MIC, serial two-fold agar dilution; type: cell-based; conditions: GAM agar, anaerobe
[15] = system: gram-negative bacteria and fungi; experiment: antibacterial/antifungal activity (MIC), summary; type: cell-based

SMILES: CO[C@@H]1[C@@H](N)[C@@H](O[C@H]2[C@H](Oc3cccc4c(O)c5c(=O)oc6ccc(C)c7c(=O)oc(c34)c5c67)O[C@H](C)[C@H](O)[C@]2(C)O)O[C@H](C)[C@@H]1O [BBM-2478A]
- MIC (Escherichia coli NIHJ): 100 µg/mL (≈ 153 µM)
- antibacterial activity [1]: potent antibacterial activity
- MIC [2]: 0.8 µg/mL (≈ 1.22 µM)
- solubility in acidic water (solubility; acidic water): readily soluble
- solubility in dimethyl sulfoxide, dimethylformamide, dioxane (solubility; dimethyl sulfoxide, dimethylformamide, dioxane): readily soluble
- solubility in methanol, ethanol and chloroform (solubility; methanol, ethanol, chloroform): slightly soluble
- solubility in other organic solvents (solubility; other organic solvents): insoluble
- MIC (Clostridium perfringens): 6.3 µg/mL (≈ 9.64 µM)
- T/C values compared with chartreusin ([3]; all tumors tested, ip, qd 1→9): superior to those of chartreusin
- antitumor activity ([3]; experimental mouse tumors): significant antitumor activity
- Average wt. change on day 5 ([4]; 0.01 mg/kg/day ip): +2.0 g
- MST ([4]; 0.01 mg/kg/day ip): 10.0 days
- Survivors on day 5 ([4]; 0.01 mg/kg/day ip): 6/6
- Survivors on day 45 ([4]; 0.01 mg/kg/day ip): 0/6
- T/C ([4]; 0.01 mg/kg/day ip): 111%
- Average wt. change on day 5 ([4]; 0.03 mg/kg/day ip): +2.3 g
- MST ([4]; 0.03 mg/kg/day ip): 10.0 days
- Survivors on day 5 ([4]; 0.03 mg/kg/day ip): 6/6
- Survivors on day 45 ([4]; 0.03 mg/kg/day ip): 0/6
- Average wt. change on day 5 ([4]; 0.1 mg/kg/day ip): +1.2 g
- MST ([4]; 0.1 mg/kg/day ip): 14.5 days
- Survivors on day 5 ([4]; 0.1 mg/kg/day ip): 6/6
- Survivors on day 45 ([4]; 0.1 mg/kg/day ip): 0/6
- Average wt. change on day 5 ([4]; 0.3 mg/kg/day ip): +1.8 g
- MST ([4]; 0.3 mg/kg/day ip): 17.0 days
- Survivors on day 5 ([4]; 0.3 mg/kg/day ip): 6/6
- Survivors on day 45 ([4]; 0.3 mg/kg/day ip): 0/6
- Average wt. change on day 5 ([4]; 1 mg/kg/day ip): +0.8 g
- MST ([4]; 1 mg/kg/day ip): 21.5 days
- Survivors on day 5 ([4]; 1 mg/kg/day ip): 6/6
- Survivors on day 45 ([4]; 1 mg/kg/day ip): 0/6
- Average wt. change on day 5 ([4]; 3 mg/kg/day ip): -1.0 g
- MST ([4]; 3 mg/kg/day ip): 20.0 days
- Survivors on day 5 ([4]; 3 mg/kg/day ip): 5/5
- Survivors on day 45 ([4]; 3 mg/kg/day ip): 0/5
- Average wt. change on day 5 (lymphoid leukemia L1210; 0.01 mg/kg/day ip): +3.2 g
- MST (lymphoid leukemia L1210; 0.01 mg/kg/day ip): 8.0 days
- Survivors on day 5 (lymphoid leukemia L1210; 0.01 mg/kg/day ip): 6/6
- Survivors on day 45 (lymphoid leukemia L1210; 0.01 mg/kg/day ip): 0/6
- T/C (lymphoid leukemia L1210; 0.01 mg/kg/day ip): 100%
- Average wt. change on day 5 (lymphoid leukemia L1210; 0.03 mg/kg/day ip): +2.9 g
- MST (lymphoid leukemia L1210; 0.03 mg/kg/day ip): 8.0 days
- Survivors on day 5 (lymphoid leukemia L1210; 0.03 mg/kg/day ip): 6/6
- Survivors on day 45 (lymphoid leukemia L1210; 0.03 mg/kg/day ip): 0/6
- T/C (lymphoid leukemia L1210; 0.03 mg/kg/day ip): 100%
- Average wt. change on day 5 (lymphoid leukemia L1210; 0.1 mg/kg/day ip): +2.6 g
- MST (lymphoid leukemia L1210; 0.1 mg/kg/day ip): 8.0 days
- Survivors on day 5 (lymphoid leukemia L1210; 0.1 mg/kg/day ip): 6/6
- Survivors on day 45 (lymphoid leukemia L1210; 0.1 mg/kg/day ip): 0/6
- T/C (lymphoid leukemia L1210; 0.1 mg/kg/day ip): 100%
- Average wt. change on day 5 (lymphoid leukemia L1210; 0.3 mg/kg/day ip): +1.3 g
- MST (lymphoid leukemia L1210; 0.3 mg/kg/day ip): 10.5 days
- Survivors on day 5 (lymphoid leukemia L1210; 0.3 mg/kg/day ip): 6/6
- Survivors on day 45 (lymphoid leukemia L1210; 0.3 mg/kg/day ip): 0/6
- Average wt. change on day 5 (lymphoid leukemia L1210; 1 mg/kg/day ip): -0.8 g
- MST (lymphoid leukemia L1210; 1 mg/kg/day ip): 11.0 days
- Survivors on day 5 (lymphoid leukemia L1210; 1 mg/kg/day ip): 6/6
- Survivors on day 45 (lymphoid leukemia L1210; 1 mg/kg/day ip): 0/6
- Average wt. change on day 5 (lymphoid leukemia L1210; 3 mg/kg/day ip): -0.1 g
- MST (lymphoid leukemia L1210; 3 mg/kg/day ip): 12.0 days
- Survivors on day 5 (lymphoid leukemia L1210; 3 mg/kg/day ip): 6/6
- Survivors on day 45 (lymphoid leukemia L1210; 3 mg/kg/day ip): 0/6
- MIC (Clostridium difficile): 12.5 µg/mL (≈ 19.1 µM)
- MIC [5]: 0.8 µg/mL (≈ 1.22 µM)
- MIC [6]: > 100 µg/mL
- MIC [7]: 1.6 µg/mL (≈ 2.45 µM)
- MIC [8]: > 100 µg/mL
- MIC [9]: > 100 µg/mL
- MIC [10]: 100 µg/mL (≈ 153 µM)
- MIC [11]: 100 µg/mL (≈ 153 µM)
- LD50 [12]: 38 mg/kg
- Average wt. change on day 5 (melanotic melanoma B16; 0.03 mg/kg/day ip): +2.0 g
- MST (melanotic melanoma B16; 0.03 mg/kg/day ip): 16.0 days
- Survivors on day 5 (melanotic melanoma B16; 0.03 mg/kg/day ip): 6/6
- Survivors on day 45 (melanotic melanoma B16; 0.03 mg/kg/day ip): 0/6
- T/C (melanotic melanoma B16; 0.03 mg/kg/day ip): 114%
- Average wt. change on day 5 (melanotic melanoma B16; 0.1 mg/kg/day ip): +2.5 g
- MST (melanotic melanoma B16; 0.1 mg/kg/day ip): 18.5 days
- Survivors on day 5 (melanotic melanoma B16; 0.1 mg/kg/day ip): 6/6
- Survivors on day 45 (melanotic melanoma B16; 0.1 mg/kg/day ip): 0/6
- Average wt. change on day 5 (melanotic melanoma B16; 0.3 mg/kg/day ip): +2.5 g
- MST (melanotic melanoma B16; 0.3 mg/kg/day ip): 25.5 days
- Survivors on day 5 (melanotic melanoma B16; 0.3 mg/kg/day ip): 6/6
- Survivors on day 45 (melanotic melanoma B16; 0.3 mg/kg/day ip): 0/6
- Average wt. change on day 5 (melanotic melanoma B16; 1 mg/kg/day ip): +2.2 g
- MST (melanotic melanoma B16; 1 mg/kg/day ip): 34.5 days
- Survivors on day 5 (melanotic melanoma B16; 1 mg/kg/day ip): 6/6
- Survivors on day 45 (melanotic melanoma B16; 1 mg/kg/day ip): 0/6
- Average wt. change on day 5 (melanotic melanoma B16; 3 mg/kg/day ip): +1.5 g
- MST (melanotic melanoma B16; 3 mg/kg/day ip): 41.5 days
- Survivors on day 5 (melanotic melanoma B16; 3 mg/kg/day ip): 6/6
- Survivors on day 45 (melanotic melanoma B16; 3 mg/kg/day ip): 0/6
- MIC (Propionibacterium acnes): 6.3 µg/mL (≈ 9.64 µM)
- MIC [13]: 0.8 µg/mL (≈ 1.22 µM)
- MIC [14]: > 100 µg/mL
- anti-staphylococcal activity relative to BBM-2478B or chartreusin (Staphylococcus aureus): two to four times higher
- MIC (Micrococcus flavus D12): 0.8 µg/mL (≈ 1.22 µM)
- MIC (Bacteroides fragilis): 12.5 µg/mL (≈ 19.1 µM)
- activity against gram-negative bacteria and fungi [15]: inactive
